Like-named read-outs stand apart in the source and are kept apart here.
Columns and labels:
[1] = tested on: Apomorphine-induced agitation; experiment: Reversal of Apomorphine-induced Agitation in Rats (APO); assay type: in vivo, rat; details: for PO Max effect (cumulative agitation score over 60 min) / SC Max effect (cumulative agitation score over 60 min): apomorphine 1.0 mg/kg i.v.; for PO LAD (lowest active dose) / SC LAD (lowest active dose): lowest dose at which ≥67% tested animals respond; for SC Dose at max effect / SC Max effect (cumulative agitation score over 60 min) / SC LAD (lowest active dose): subcutaneous route
Protocol: Apomorphine (1.0 mg/kg, i.v.)-induced agitation was scored every 5 min over the first hour after injection of apomorphine. The score system was: (3) pronounced, (2) moderate, (1) slight, and (0) absent. […] For the present purpose, the cumulative agitation score over the whole 60-min observation period was used as a measure to describe the maximum effect (Max effect).

[2] = target: T1, Rat recombinant PDE10A (rPDE10A2) (Rattus norvegicus, UniProt Q9QYJ6); experiment: In vitro assay PDE10A (SPA, 3H-cAMP); assay type: biochemical; details: for IC50: read-out: PIC50 PDE10 (converted)
T1 construct: made in house; host or cells: Sf9 insect cells (baculovirus)
T1 sequence (Q9QYJ6 1-794): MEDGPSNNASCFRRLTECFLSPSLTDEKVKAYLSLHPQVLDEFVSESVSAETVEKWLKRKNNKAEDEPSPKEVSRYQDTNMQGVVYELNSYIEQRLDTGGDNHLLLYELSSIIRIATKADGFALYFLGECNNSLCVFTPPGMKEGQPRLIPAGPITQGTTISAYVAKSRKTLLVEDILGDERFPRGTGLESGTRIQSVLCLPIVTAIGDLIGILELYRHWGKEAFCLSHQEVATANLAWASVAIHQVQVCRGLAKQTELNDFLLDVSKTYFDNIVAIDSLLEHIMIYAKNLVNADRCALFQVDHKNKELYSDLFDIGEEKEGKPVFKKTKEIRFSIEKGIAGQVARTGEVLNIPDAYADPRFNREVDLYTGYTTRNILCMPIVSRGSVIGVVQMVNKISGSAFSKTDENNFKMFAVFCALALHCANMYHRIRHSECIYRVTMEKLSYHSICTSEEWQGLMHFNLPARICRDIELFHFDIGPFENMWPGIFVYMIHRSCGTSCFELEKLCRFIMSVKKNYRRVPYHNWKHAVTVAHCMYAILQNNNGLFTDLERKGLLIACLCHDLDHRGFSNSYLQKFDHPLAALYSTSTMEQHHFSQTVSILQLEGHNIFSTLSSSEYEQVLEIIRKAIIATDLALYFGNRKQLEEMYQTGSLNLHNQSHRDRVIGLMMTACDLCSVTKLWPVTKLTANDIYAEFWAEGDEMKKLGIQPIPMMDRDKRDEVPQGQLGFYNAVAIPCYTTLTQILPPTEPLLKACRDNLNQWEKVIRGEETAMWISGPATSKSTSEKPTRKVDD

[3] = -log IC50 expressed in mol/L, rPDE10A2, 60 nM cAMP

Cc1nc2ccc(C(=O)NCc3ccccc3)cc2n2c(-c3ccccc3)nnc12 [Compound B-9, N-Benzyl-4-methyl-1-phenyl[1,2,4]triazolo[4,3-a]quinoxaline-8-carboxamide]
PO Dose at Max Effect [1]: 2.5 mg/kg | PO Max effect (cumulative agitation score over 60 min) [1]: 22 | PO LAD (lowest active dose) [1]: > 2.5 mg/kg | IC50 [2]: 0.0417 µM

CCNC(=O)c1ccc2nc(C)c3nnc(-c4cccnc4C)n3c2c1 [Compound B-68]
SC Dose at max effect [1]: 10 mg/kg | SC Max effect (cumulative agitation score over 60 min) [1]: 22 | SC LAD (lowest active dose) [1]: > 10 mg/kg | IC50 [2, 3]: 0.178 µM

CCNCc1ccc2nc(C)c3nnc(-c4cc(OC(C)C)ccc4Cl)n3c2c1 [Compound B-148]
PIC50 PDE10 [2, 3]: 5.07

CCNC(=O)c1ccc2nc(C)c3nnc(-c4cccnc4)n3c2c1 [Compound B-143]
IC50 [2, 3]: 1.35 µM

Cc1nc2ccc(CN3CCCC(CO)C3)cc2n2c(-c3ccccc3Cl)nnc12 (centres unmarked) [Compound B-110]
SC Dose at max effect [1]: 10 mg/kg | SC Max effect (cumulative agitation score over 60 min) [1]: 21 | SC LAD (lowest active dose) [1]: > 10 mg/kg | IC50 [2]: 0.0447 µM

Cc1nc2ccc(CN(C)C)cc2n2c(-c3cncc(OCC4CC4)c3)nnc12 [Compound B-205]
IC50 [2]: > 10 µM

CCCCOc1ccc(Cl)c(-c2nnc3c(C)nc4ccc(CNC(C)C)cc4n23)c1 [Compound B-149]
PIC50 PDE10 [2, 3]: 5.38

COc1cncc(-c2nnc3c(C)nc4ccc(CN5CCOCC5)cc4n23)c1 [Compound B-91]
SC Dose at max effect [1]: 10 mg/kg | SC Max effect (cumulative agitation score over 60 min) [1]: 21 | SC LAD (lowest active dose) [1]: > 10 mg/kg | PIC50 PDE10 [2, 3]: 6.57

COc1ccc(Cl)c(-c2nnc3c(C)nc4ccc(CN5CCOCC5)cc4n23)c1 [Compound B-84]
PO Dose at Max Effect [1]: 10 mg/kg | PO Max effect (cumulative agitation score over 60 min) [1]: 21 | PO LAD (lowest active dose) [1]: > 10 mg/kg | IC50 [2, 3]: 0.105 µM

CCNC(=O)c1ccc2nc(C)c3nnc(-c4ccccc4Cl)n3c2c1 [Compound B-10, 1-(2-Chlorophenyl)-N-ethyl-4-methyl[1,2,4]triazolo[4,3-a]quinoxaline-8-carboxamide]
PO Dose at Max Effect [1]: 2.5 mg/kg | PO Max effect (cumulative agitation score over 60 min) [1]: 21 | PO LAD (lowest active dose) [1]: > 2.5 mg/kg | IC50 [2, 3]: 0.0214 µM

CCCCOc1ccc(F)c(-c2nnc3c(C)nc4cc(Br)ccc4n23)c1 [Compound B-175]
IC50 [2]: > 10 µM

Cc1nc2ccc(CN(C)C)cc2n2c(-c3ccccc3Cl)nnc12 [Compound B-107]
SC Dose at max effect [1]: 10 mg/kg | SC Max effect (cumulative agitation score over 60 min) [1]: 20.5 | SC LAD (lowest active dose) [1]: > 10 mg/kg | IC50 [2]: 0.107 µM

CCNC(=O)c1ccc2nc(C)c3nnc(-c4cncc(OC)c4)n3c2c1 [Compound B-80]
IC50 [2]: 0.741 µM

CCOc1ccc(Cl)c(-c2nnc3c(C)nc4ccc(CN(C)C)cc4n23)c1 [Compound B-142]
SC Dose at max effect [1]: 10 mg/kg | SC Max effect (cumulative agitation score over 60 min) [1]: 22 | SC LAD (lowest active dose) [1]: > 10 mg/kg | IC50 [2]: 0.316 µM

CCCOc1ccc(Cl)c(-c2nnc3c(C)nc4ccc(CNCC)cc4n23)c1 [Compound B-111]
IC50 [2]: 1.78 µM

Cc1nc2ccc(CN3CCOCC3)cc2n2c(-c3c(F)cccc3Cl)nnc12 [Compound B-23, 1-(2-Chloro-6-fluorophenyl)-4-methyl-8-(morpholin-4-ylmethyl)[1,2,4]triazolo[4,3-a]quinoxaline]
SC Dose at max effect [1]: 40 mg/kg | SC Max effect (cumulative agitation score over 60 min) [1]: 1 | SC LAD (lowest active dose) [1]: 0.63 mg/kg

Cc1nc2ccc(Br)cc2n2c(-c3ccccc3Cl)nnc12 [Compound B-3a, 8-Bromo-1-(2-chlorophenyl)-4-methyl[1,2,4]triazolo[4,3-a]quinoxaline]
PO Dose at Max Effect [1]: 10 mg/kg | PO Max effect (cumulative agitation score over 60 min) [1]: 22 | PO LAD (lowest active dose) [1]: > 10 mg/kg | IC50 [2, 3]: 0.0437 µM

Cc1nc2ccc(CN3CCOCC3)cc2n2c(-c3ccc(F)cc3Cl)nnc12 [Compound B-82]
SC Dose at max effect [1]: 10 mg/kg | SC Max effect (cumulative agitation score over 60 min) [1]: 9 | SC LAD (lowest active dose) [1]: 2.5 mg/kg | IC50 [2]: 0.0851 µM

CCCCOc1cncc(-c2nnc3c(C)nc4ccc(CNC(C)C)cc4n23)c1 [Compound B-153]
IC50 [2, 3]: > 10 µM

Cc1nc2ccc(CNC(C)C)cc2n2c(-c3cncc(OCC4CC4)c3)nnc12 [Compound B-210]
IC50 [2]: 1.45 µM

CCOC(=O)c1ccc2nc(C)c3nnc(-c4ccccc4)n3c2c1 [Compound B-2a, Ethyl 4-methyl-1-phenyl[1,2,4]triazolo[4,3-a]quinoxaline-8-carboxylate]
IC50 [2, 3]: 0.295 µM

CCCCOc1cc(-c2nnc3c(C)nc4ccc(CN5CCOCC5)cc4n23)cnc1Cl [Compound B-202]
IC50 [2, 3]: > 10 µM

CCNC(=O)c1ccc2nc(C)c3nnc(-c4cnccc4C)n3c2c1 [Compound B-109]
IC50 [2]: 0.851 µM

Cc1nc2ccc(CN3CCOCC3)cc2n2c(-c3cc(OC(C)C)ccc3Cl)nnc12 [Compound B-58]
PIC50 PDE10 [2, 3]: 5.73

Cc1nc2ccc(CNCc3ccccc3)cc2n2c(-c3ccccc3Cl)nnc12 [Compound B-99]
PIC50 PDE10 [2, 3]: 7.3

Cc1nc2ccc(CN3CCOCC3)cc2n2c(-c3cncc(OCC4CC4)c3)nnc12 [Compound B-193]
PIC50 PDE10 [2, 3]: 5.44

CCCCOc1ccc(Cl)c(-c2nnc3c(C)nc4ccc(CNC)cc4n23)c1 [Compound B-192]
PIC50 PDE10 [2, 3]: 5.04

CCCCOc1ccc(Cl)c(-c2nnc3c(C)nc4ccc(CNCC)cc4n23)c1 [Compound B-101]
IC50 [2]: 5.5 µM

CCCOc1cncc(-c2nnc3c(C)nc4ccc(CNCC)cc4n23)c1 [Compound B-178]
IC50 [2]: > 10 µM

CCOC(=O)c1ccc2c(c1)nc(C)c1nnc(-c3ccccc3)n12 [Compound B-2b, Ethyl 4-methyl-1-phenyl[1,2,4]triazolo[4,3-a]quinoxaline-7-carboxylate]
PIC50 PDE10 [2, 3]: 5.57

CCNC(=O)c1ccc2nc(C)c3nnc(-c4c(Cl)cccc4Cl)n3c2c1 [Compound B-33]
IC50 [2, 3]: 0.0123 µM

Cc1nc2ccc(CN(C)C)cc2n2c(-c3cc(OC(C)C)ccc3Cl)nnc12 [Compound B-141]
PIC50 PDE10 [2, 3]: 5.8

CCNC(=O)c1ccc2nc(C)c3nnc(-c4cccnc4)n3c2c1 [Compound B-127]
IC50 [2, 3]: 1.82 µM

CCCOc1cncc(-c2nnc3c(C)nc4ccc(CN5CCOCC5)cc4n23)c1 [Compound B-119]
PIC50 PDE10 [2, 3]: 5.21

CCN(CC)CCNC(=O)c1ccc2nc(C)c3nnc(-c4ccccc4Cl)n3c2c1 [Compound B-41]
SC Dose at max effect [1]: 10 mg/kg | SC Max effect (cumulative agitation score over 60 min) [1]: 22 | SC LAD (lowest active dose) [1]: > 10 mg/kg | IC50 [2]: 0.0447 µM

CCCCOc1cncc(-c2nnc3c(C)nc4ccc(CNC)cc4n23)c1 [Compound B-200]
IC50 [2]: > 10 µM

COCCOc1cncc(-c2nnc3c(C)nc4ccc(CN5CCOCC5)cc4n23)c1 [Compound B-203]
PIC50 PDE10 [2, 3]: 5.11

CCCOc1ccc(Cl)c(-c2nnc3c(C)nc4ccc(CN(C)C)cc4n23)c1 [Compound B-112]
IC50 [2]: 1.48 µM

CCCCOc1ccc(F)c(-c2nnc3c(C)nc4ccc(C#N)cc4n23)c1 [Compound B-120]
IC50 [2]: 3.55 µM

CCCCOc1cncc(-c2nnc3c(C)nc4ccc(CN5CCOCC5)cc4n23)c1.Cl [Compound B-17a, 1-(5-Butoxypyridin-3-yl)-4-methyl-8-(morpholin-4-ylmethyl) [1,2,4]triazolo[4,3-a]quinoxaline hydrochloride]
SC Dose at max effect [1]: 40 mg/kg | SC Max effect (cumulative agitation score over 60 min) [1]: 23 | SC LAD (lowest active dose) [1]: > 40 mg/kg

CCCCOc1cncc(-c2nnc3c(C)nc4ccc(CNCC)cc4n23)c1 [Compound B-150]
IC50 [2]: > 10 µM

Cc1nc2ccc(CN3CCOCC3)cc2n2c(-c3ccccc3Cl)nnc12 [Compound B-19, 1-(2-Chlorophenyl)-4-methyl-8-(morpholin-4-ylmethyl)[1,2,4]triazolo[4,3-a]-quinoxaline]
SC Dose at max effect [1]: 5 mg/kg | SC Max effect (cumulative agitation score over 60 min) [1]: 14 | SC LAD (lowest active dose) [1]: 5 mg/kg

CCCCOc1ccc(F)c(-c2nnc3c(C)nc4ccc(Br)cc4n23)c1 [Compound B-95]
IC50 [2]: 1.74 µM

CCCCOc1ccc(F)c(-c2nnc3c(C)nc4cc(C#N)ccc4n23)c1 [Compound B-176]
IC50 [2]: > 10 µM

CCNCc1ccc2nc(C)c3nnc(-c4cc(OCC)ccc4Cl)n3c2c1 [Compound B-151a]
PIC50 PDE10 [2, 3]: 6.04

CCNCc1ccc2nc(C)c3nnc(-c4cncc(OCC5CC5)c4)n3c2c1 [Compound B-211]
IC50 [2, 3]: > 10 µM

CCNCc1ccc2nc(C)c3nnc(-c4ccccc4Cl)n3c2c1 [Compound B-20, N-{[1-(2-Chlorophenyl)-4-methyl[1,2,4]triazolo[4,3-a]quinoxalin-8-yl]methyl}-ethanamine]
SC Dose at max effect [1]: 10 mg/kg | SC Max effect (cumulative agitation score over 60 min) [1]: 21 | SC LAD (lowest active dose) [1]: > 10 mg/kg

CCCOc1ccc(Cl)c(-c2nnc3c(C)nc4ccc(Br)cc4n23)c1 [Compound B-92]
IC50 [2]: 0.468 µM

Reference: patent publication US10604523B2, “1-aryl-4-methyl-[1,2,4]triazolo[4,3-a]quinoxaline derivatives” (Janssen Pharmaceutica NV, priority 2011, dated 2020)
